Test results taken from publication PMC8406200, “SAMase of Bacteriophage T3 Inactivates Escherichia coli’s Methionine S-Adenosyltransferase by Forming Heteropolymers” (mBio, 2021).

B1: S-Adenosylmethionine lyase (SAMase) of bacteriophage T3, C-terminal His-tagged (enzyme)
chain: MIFTKEPAHVFYVLVSAFRSNLCDEVNMSRHRHMVSTLRAAPGLYGSVESTDLTGCYREAISSAPTEEKTVRVRCKDKAQALNVARLACNEWEQDCVLVYKSQTHTAGLVYAKGIDGYKAERLPGSFQEVPKGAPLQGCFTIDEFGRRWQVQ
notes: S-adenosylmethionine lyase (SAMase) of bacteriophage T3, UniProt P07693; gene synthesized de novo with six His codons at the 3' end; anticipated monomer size around 17 kDa; Dimer by SEC, cross-linking and cryo-EM; also called T3 SAMase; 6×His-tagged SAMase; not shown: His6, C-terminal, kept
B2: E. coli methionine S-adenosyltransferase (MAT), recombinant, C-terminal His6 (enzyme, E. coli MG1655, UniProt P0A817 1-384, looked up)
chain: MAKHLFTSESVSEGHPDKIADQISDAVLDAILEQDPKARVACETYVKTGMVLVGGEITTSAWVDIEEITRNTVREIGYVHSDMGFDANSCAVLSAIGKQSPDINQGVDRADPLEQGAGDQGLMFGYATNETDVLMPAPITYAHRLVQRQAEVRKNGTLPWLRPDAKSQVTFQYDDGKIVGIDAVVLSTQHSEEIDQKSLQEAVMEEIIKPILPAEWLTSATKFFINPTGRFVIGGPMGDCGLTGRKIIVDTYGGMARHGGGAFSGKDPSKVDRSAAYAARYVAKNIVAAGLADRCEIQVSYAIGVAEPTSIMVETFGTEKVPSEQLTLLVREFFDLRPYGLIQMLDLLHPIYKETAAYGHFGREHFPWEKTDKAQLLRDAAGLK
notes: Homotetramer (dimer of dimers); also called EcMAT; E. coli MAT; source: E. coli BL21(DE3) (pET24a), purified (Ni-NTA, SEC)

Experiments:
[1] = biological target: T1, E. coli MAT (EcMAT) (Escherichia coli, UniProt P0A817, D132P/V133T/I178V/I211V/A214P, form not given); assay: HPLC (SCX, […] nm) of SAM / MTA formation; format: biochemical; details: mutant EcMAT; methionine as co-substrate; pH 7.5, 10 mM MgCl2, 37°C; W26L as printed (position doubtful, probably W216L)
T1 construct: gene metK; C-terminal His6 tag, full length, pET24a, BL21(DE3); homotetramer (dimer of dimers), ~43 kDa subunit
T1 sequence (P0A817 2-384 D132P/V133T/I178V/I211V/A214P, form open): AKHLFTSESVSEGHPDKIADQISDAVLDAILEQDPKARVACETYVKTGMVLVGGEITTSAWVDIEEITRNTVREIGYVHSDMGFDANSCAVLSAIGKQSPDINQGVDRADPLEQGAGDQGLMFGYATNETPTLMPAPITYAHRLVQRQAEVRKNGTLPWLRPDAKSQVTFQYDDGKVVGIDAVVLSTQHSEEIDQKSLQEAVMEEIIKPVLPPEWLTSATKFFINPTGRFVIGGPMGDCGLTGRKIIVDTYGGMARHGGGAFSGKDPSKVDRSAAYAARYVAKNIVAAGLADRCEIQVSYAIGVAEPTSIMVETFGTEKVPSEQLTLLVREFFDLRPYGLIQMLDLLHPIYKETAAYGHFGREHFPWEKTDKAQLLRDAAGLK

[2] = biological target: T2, E. coli MAT (EcMAT) (Escherichia coli, UniProt P0A817); assay: HPLC (SCX, […] nm) of SAM formation; format: biochemical; details: 80 μM ATP, 1 mM methionine, 250 nM enzyme; 25 mM HEPES pH 7.5, 100 mM KCl, 10 mM MgCl2, 1 mM DTT; 37°C; no SAMase
T2 construct: gene metK; C-terminal His6 tag, full length, pET24a, BL21(DE3); homotetramer (dimer of dimers), ~43 kDa subunit
T2 sequence (P0A817 2-384): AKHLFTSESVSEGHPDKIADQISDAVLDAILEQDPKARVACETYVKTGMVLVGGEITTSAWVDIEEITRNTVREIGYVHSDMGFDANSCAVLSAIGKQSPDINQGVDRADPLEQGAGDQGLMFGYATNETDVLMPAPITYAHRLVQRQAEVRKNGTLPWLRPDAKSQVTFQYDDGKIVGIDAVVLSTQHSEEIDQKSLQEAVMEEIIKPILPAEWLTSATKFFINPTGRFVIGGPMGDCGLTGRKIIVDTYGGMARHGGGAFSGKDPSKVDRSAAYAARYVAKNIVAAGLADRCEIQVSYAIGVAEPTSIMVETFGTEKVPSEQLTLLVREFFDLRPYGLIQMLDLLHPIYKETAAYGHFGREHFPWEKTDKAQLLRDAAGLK

[3] = biological target: T3, U. urealyticum MAT (UuMAT) (Ureaplasma urealyticum, UniProt A0ABM9XK24); assay: HPLC (SCX, […] nm) of SAM / MTA formation; format: biochemical; details: 80 μM ATP, 1 mM methionine, 250 nM enzyme; pH 7.5, 10 mM MgCl2, 37°C
T3 construct: gene metK
T3 sequence (A0ABM9XK24 1-376): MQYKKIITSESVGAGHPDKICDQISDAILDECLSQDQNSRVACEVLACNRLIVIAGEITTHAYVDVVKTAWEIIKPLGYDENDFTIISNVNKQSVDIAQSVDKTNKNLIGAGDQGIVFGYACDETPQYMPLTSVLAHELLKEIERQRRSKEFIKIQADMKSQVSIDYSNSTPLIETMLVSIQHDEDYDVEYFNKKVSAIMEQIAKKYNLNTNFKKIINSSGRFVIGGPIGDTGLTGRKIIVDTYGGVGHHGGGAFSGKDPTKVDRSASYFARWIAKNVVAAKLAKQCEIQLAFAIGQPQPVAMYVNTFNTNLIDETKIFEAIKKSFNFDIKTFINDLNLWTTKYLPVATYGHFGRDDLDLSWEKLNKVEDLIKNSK

[4] = biological target: T4, N. gonorrhea MAT (NgMAT) (Neisseria gonorrhoeae, UniProt Q5FAC0); assay: HPLC (SCX, […] nm) of SAM / MTA formation; format: biochemical; details: 80 μM ATP, 1 mM methionine, 250 nM enzyme; pH 7.5, 10 mM MgCl2, 37°C
T4 construct: gene metK
T4 sequence (Q5FAC0 1-389): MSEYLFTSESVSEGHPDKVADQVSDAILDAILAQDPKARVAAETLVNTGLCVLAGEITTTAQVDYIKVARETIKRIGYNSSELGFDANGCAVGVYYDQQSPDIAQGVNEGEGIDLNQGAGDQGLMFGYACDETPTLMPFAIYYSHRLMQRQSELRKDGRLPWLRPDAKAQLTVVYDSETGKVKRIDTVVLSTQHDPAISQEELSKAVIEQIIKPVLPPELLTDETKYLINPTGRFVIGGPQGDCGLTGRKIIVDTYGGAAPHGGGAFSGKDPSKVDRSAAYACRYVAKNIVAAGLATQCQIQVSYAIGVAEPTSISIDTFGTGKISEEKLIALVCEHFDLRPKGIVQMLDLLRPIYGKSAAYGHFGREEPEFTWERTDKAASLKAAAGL

[5] = biological target: the molecule itself; assay: SEC; SAMase alone on Superdex 200 Increase 10/300 GL against protein standards; natively purified and refolded SAMase; 25 mM Tris pH 8.0, 150 mM KCl, 1 mM DTT
[6] = biological target: B2; assay: cryo-EM structure; refolded SAMase and E. coli MAT mixed 1:1 (160 μM monomer each) with 500 μM SAM, preincubated 48 h, high-molecular-weight SEC peak; single-particle, no symmetry imposed (C1); details: both partners purified
[7] = biological target: the molecule itself; assay: as above

Molecule | HPLC (SCX, 254 nm) of SAM / MTA formation [1] | HPLC (SCX, 254 nm) of SAM formation [2] | HPLC (SCX, 254 nm) of SAM / MTA formation [3] | HPLC (SCX, 254 nm) of SAM / MTA formation [4] | stoichiometry N [5] | binding result [6] | stoichiometry N [7]
Nc1ncnc2c1ncn2[C@@H]1O[C@H](COP(=O)(O)OP(=O)(O)OP(=O)(O)O)[C@@H](O)[C@H]1O [ATP] | mutant E. coli MAT (EcMAT mut) was measured either alone (blue trace, rate of SAM production | Synthesis of SAM from ATP and methionine by E. coli MAT was conducted in the absence | Synthesis of SAM from ATP and methionine of MAT proteins was conducted | Synthesis of SAM from ATP and methionine of MAT proteins was conducted |  |  | 
CSCC[C@H](N)C(=O)O [methionine] |  | Synthesis of SAM from ATP and methionine by E. coli MAT was conducted in the absence | Synthesis of SAM from ATP and methionine of MAT proteins was conducted | Synthesis of SAM from ATP and methionine of MAT proteins was conducted |  |  | 
B1 |  |  |  |  | 2 | binds | 
B2 |  |  |  |  |  |  | 4
